Reference: patent US20210101874A1, “MICROBIOCIDAL OXADIAZOLE DERIVATIVES” (SYNGENTA PARTICIPATIONS AG, priority 2017, published 2021)

Tests used:
Phakopsora pachyrhizi = Phakopsora pachyrhizi / soybean / leaf disc preventative (Asian soybean rust); format: in vivo; conditions: foliar, 200 ppm in the applied formulation, soybean leaf disks, inoculated one day after application, compared to untreated, assessed 12 to 14 days after application, read-out: disease control
Method: Leaf disks or leaf segments of various plant species are cut from plants grown in a greenhouse. The cut leaf disks or segments are placed in multiwell plates (24-well format) onto water agar. The leaf disks are sprayed with a test solution before (preventative) or after (curative) inoculation. Compounds to be tested are prepared as DMSO solutions (max. 10 mg/ml) which are diluted to the appropriate concentration with 0.025% Tween20 just before spraying. The inoculated leaf disks or segments are incubated under defined conditions (temperature, relative humidity, light, etc.) according to the respective test system. A single evaluation of disease level is carried out 3 to 14 days after inoculation, depending on the pathosystem. Percent disease control relative to the untreated check leaf disks or segments is then calculated.
Soybean leaf disks are placed on water agar in multiwell plates (24-well format) and sprayed with the formulated test compound diluted in water. One day after application leaf discs are inoculated by spraying a spore suspension on the lower leaf surface. After an incubation period in a climate cabinet of 24-36 hours in darkness at 20° C. and 75% rh leaf disc are kept at 20° C. with 12 h light/day and 75% rh. The activity of a compound is assessed as percent disease control compared to untreated when an appropriate level of disease damage appears in untreated check leaf disks (12 to 14 days after application).
The following compounds at 200 ppm in the applied formulation give at least 80% disease control in this test when compared to untreated control leaf disks under the same conditions, which show extensive disease development.

[1] = test system: Glomerella lagenarium (Colletotrichum lagenarium); test: Glomerella lagenarium (Colletotrichum lagenarium) liquid culture / cucumber / preventative (anthracnose); format: cell-based; conditions: Colletotrichum orbiculare; 20 ppm in the applied formulation; conidia in PDB nutrient broth, 24° C.; 3 to 4 days after application; compared to untreated; read-out: disease control (inhibition of growth measured photometrically)
In short: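 Cryostored conidia in potato dextrose broth added to compound diluted from DMSO solution, 96-well format. Plates incubated at 24 °C. Growth inhibition read photometrically 3 to 4 days after application, as percent activity versus untreated check.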

[2] = test system: Puccinia recondita f. sp. Tritici; test: Puccinia recondita f. sp. tritici / wheat / leaf disc preventative (brown rust); format: in vivo; conditions: foliar, 200 ppm in the applied formulation, wheat leaf segments cv. Kanzler, inoculated 1 day after application, compared to untreated, assessed 7 to 9 days after application, read-out: disease control
In short: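 Wheat leaf segments (cv. Kanzler) on water agar were sprayed with test compound (DMSO stock diluted in 0.025% Tween20/water), then spore-inoculated 1 day later. Incubation at 19° C., 75% rh, 12 h light/12 h dark; percent disease control versus untreated segments scored 7 to 9 days after application. Tested at 200 ppm.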

[3] = test system: Puccinia recondita f. sp. Tritici; test: Puccinia recondita f. sp. tritici / wheat / leaf disc curative (brown rust); format: in vivo; conditions: foliar, 200 ppm in the applied formulation, wheat leaf segments cv. Kanzler, applied 1 day after inoculation, compared to untreated, assessed 6 to 8 days after application, read-out: disease control
In short: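 Curative test: wheat leaf segments cv. Kanzler on agar inoculated with spore suspension, kept dark at 19 °C/75% RH, then sprayed 1 day post-inoculation with compound diluted in water. Incubated at 19 °C, 75% RH, 12 h light/dark; percent disease control versus untreated scored 6–8 days after application.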

SMILES | melting point [°C] | pest or weed control at 200 ppm (Phakopsora pachyrhizi) [%] | inhibition at 20 ppm [1] [%] | pest or weed control at 200 ppm [2] [%] | pest or weed control at 200 ppm [3] [%]
CS(=O)(=O)N(Cc1ccc(-c2noc(C(F)(F)F)n2)cc1)C1CC1 [Compound 1.8, N-cyclopropyl-N-[[4-[5-(trifluoromethyl)-1,2,4-oxadiazol-3-yl]phenyl]methyl] methanesulfonamide] | 84 to 86 | ≥ 80 | ≥ 80 | ≥ 80 | ≥ 80
CN(Cc1ccc(-c2noc(C(F)(F)F)n2)cc1)S(=O)(=O)N1CCOCC1 [Compound 1.15, N-methyl-N-[[4-[5-(trifluoromethyl)-1,2,4-oxadiazol-3-yl]phenyl]methyl] morpholine-4-sulfonamide] | 118 to 120 | ≥ 80 | ≥ 80 | ≥ 80 | ≥ 80
CCN(Cc1ccc(-c2noc(C(F)(F)F)n2)cc1F)S(C)(=O)=O [Compound 1.103, N-ethyl-N-[[2-fluoro-4-[5-(trifluoromethyl)-1,2,4-oxadiazol-3-yl]phenyl]methyl] methanesulfonamide] | 90 to 93 | ≥ 80 | ≥ 80 | ≥ 80 | ≥ 80
CCN(Cc1ccc(-c2noc(C(F)(F)F)n2)c(F)c1F)S(C)(=O)=O [Compound 1.104, N-[[2,3-difluoro-4-[5-(trifluoromethyl)-1,2,4-oxadiazol-3-yl]phenyl]methyl]-N-ethyl-methanesulfonamide] | 81 to 93 | ≥ 80 | ≥ 80 | ≥ 80 | ≥ 80
COCCS(=O)(=O)NCc1ccc(-c2noc(C(F)(F)F)n2)cc1 [Compound 2.1, 2-methoxy-N-[[4-[5-(trifluoromethyl)-1,2,4-oxadiazol-3-yl]phenyl]methyl] ethanesulfon-amide] | 97 to 100 | ≥ 80 | ≥ 80 | ≥ 80 | ≥ 80
O=S(=O)(NCc1ccc(-c2noc(C(F)(F)F)n2)cc1)C1CC1 [Compound 3.2, N-[[4-[5-(trifluoromethyl)-1,2,4-oxadiazol-3-yl]phenyl]methyl] cyclopropanesulfon-amide] | 130 to 134 | ≥ 80 | ≥ 80 | ≥ 80 | ≥ 80
O=S(=O)(CC1CC1)NCc1ccc(-c2noc(C(F)(F)F)n2)cc1 [Compound 3.3, 1-cyclopropyl-N-[[4-[5-(trifluoromethyl)-1,2,4-oxadiazol-3-yl]phenyl]methyl] methanesulfonamide] | 140 to 144 | ≥ 80 | ≥ 80 | ≥ 80 | ≥ 80
O=S(=O)(CC1CCOC1)NCc1ccc(-c2noc(C(F)(F)F)n2)cc1 (centres unmarked) [Compound 3.4, 1-tetrahydrofuran-3-yl-N-[[4-[5-(trifluoromethyl)-1,2,4-oxadiazol-3-yl]phenyl]methyl] methanesulfonamide] | 117 to 122 | ≥ 80 | ≥ 80 | ≥ 80 | ≥ 80
O=S(=O)(Nc1ccc(-c2noc(C(F)(F)F)n2)cc1)C1CC1 [Compound 3.33, N-[4-[5-(trifluoromethyl)-1,2,4-oxadiazol-3-yl]phenyl]cyclo-propanesulfonamide] | 130 to 140 | ≥ 80 | ≥ 80 | ≥ 80 | 
O=S(=O)(Nc1ccc(-c2noc(C(F)(F)F)n2)cc1)c1ccccc1 [Compound 3.35, N-[4-[5-(trifluoromethyl)-1,2,4-oxadiazol-3-yl]phenyl]benzene-sulfonamide] | 115 to 130 | ≥ 80 | ≥ 80 | ≥ 80 | 

The next lines start with results.

melting point [°C] | SMILES | pest or weed control at 200 ppm (Phakopsora pachyrhizi) [%] | inhibition at 20 ppm [1] [%] | pest or weed control at 200 ppm [2] [%] | pest or weed control at 200 ppm [3] [%]
86 to 88 | CCS(=O)(=O)N(Cc1ccc(-c2noc(C(F)(F)F)n2)cc1)C1CC1 [Compound 1.1, N-cyclopropyl-N-[[4-[5-(trifluoromethyl)-1,2,4-oxadiazol-3-yl]phenyl]methyl] ethanesulfonamide] | ≥ 80 | ≥ 80 | ≥ 80 | ≥ 80
44 to 46 | CCS(=O)(=O)N(Cc1ccc(-c2noc(C(F)(F)F)n2)cc1)OC [Compound 1.3, N-methoxy-N-[[4-[5-(trifluoromethyl)-1,2,4-oxadiazol-3-yl]phenyl]methyl] ethanesulfonamide] | ≥ 80 | ≥ 80 | ≥ 80 | ≥ 80
102 to 105 | CN(Cc1ccc(-c2noc(C(F)(F)F)n2)cc1)S(=O)(=O)C1CC1 [Compound 1.10, N-methyl-N-[[4-[5-(trifluoromethyl)-1,2,4-oxadiazol-3-yl]phenyl]methyl] cyclopropanesulfonamide] | ≥ 80 | ≥ 80 | ≥ 80 | ≥ 80
103 to 105 | CN(Cc1ccc(-c2noc(C(F)(F)F)n2)cc1)S(C)(=O)=O [Compound 1.11, N-methyl-N-[[4-[5-(trifluoromethyl)-1,2,4-oxadiazol-3-yl]phenyl]methyl] methanesulfonamide] | ≥ 80 | ≥ 80 | ≥ 80 | ≥ 80
77 to 79 | CN(C)S(=O)(=O)N(C)Cc1ccc(-c2noc(C(F)(F)F)n2)cc1 [Compound 1.12, N-(dimethylsulfamoyl)-N-methyl-1-[4-[5-(trifluoromethyl)-1,2,4-oxadiazol-3-yl]phenyl] methanamine] | ≥ 80 | ≥ 80 | ≥ 80 | ≥ 80
85 to 88 | CCS(=O)(=O)N(C)Cc1ccc(-c2noc(C(F)(F)F)n2)cc1 [Compound 1.13, N-methyl-N-[[4-[5-(trifluoromethyl)-1,2,4-oxadiazol-3-yl]phenyl]methyl] ethanesulfonamide] | ≥ 80 | ≥ 80 | ≥ 80 | ≥ 80
63 to 66 | CCNS(=O)(=O)N(C)Cc1ccc(-c2noc(C(F)(F)F)n2)cc1 [Compound 1.16, 3-[4-[[ethylsulfamoyl (methyl)amino]methyl]phenyl]-5-(trifluoromethyl)-1,2,4-oxadiazole] | ≥ 80 | ≥ 80 | ≥ 80 | ≥ 80
108 to 110 | CCNS(=O)(=O)N(Cc1ccc(-c2noc(C(F)(F)F)n2)cc1)C1CC1 [Compound 1.17, 3-[4-[[cyclopropyl (ethylsulfamoyl)amino]methyl]phenyl]-5-(trifluoromethyl)-1,2,4-oxadiazole] | ≥ 80 | ≥ 80 | ≥ 80 | ≥ 80
127 to 129 | CCS(=O)(=O)NCc1ccc(-c2noc(C(F)(F)F)n2)cc1 [Compound 2.2, N-[[4-[5-(trifluoromethyl)-1,2,4-oxadiazol-3-yl]phenyl]methyl] ethanesulfon-amide] | ≥ 80 | ≥ 80 | ≥ 80 | ≥ 80
105 to 107 | CN(C)S(=O)(=O)NCc1ccc(-c2noc(C(F)(F)F)n2)cc1 [Compound 2.3, 3-[4-[(dimethyl-sulfamoylamino)methyl]phenyl]-5-(trifluoromethyl)-1,2,4-oxadiazole] | ≥ 80 | ≥ 80 | ≥ 80 | ≥ 80
